US20260125375A1 (Pfizer Inc., priority 2022, published 2026)
Where two headings read alike, the source gives them in different places.

Key:
CBL-B (residues 36-427) = target: T1, CBL-B (residues 36-427) (Homo sapiens, UniProt Q13191); experiment: Ligand Displacement Assay (LDA), HTRF competitive binding against BODIPY-labeled fluorescent tracer, CBL-B; settings: geometric mean of the number of tests, read-out: CBL-B Ki (nM) GMean
T1 construct: Purified CBL-B (residues 36-427) and C-CBL (residues 46-435) proteins from baculovirus-infected insect cells; made in house; host or cells: baculovirus-infected insect cells
How it was run: (§1)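 Terbium-streptavidin donor on BirA-biotinylated, AviTagged protein from baculovirus-infected insect cells; BODIPY tracer as acceptor. Compound titrations were three-fold and duplicated, […] with 2% DMSO final.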

C-CBL (residues 46-435) = target: T2, C-CBL (residues 46-435) (Homo sapiens, UniProt P22681); experiment: Ligand Displacement Assay (LDA), HTRF competitive binding against BODIPY-labeled fluorescent tracer, C-CBL; settings: geometric mean of the number of tests, read-out: C-CBL Ki (nM) GMean
T2 construct: Purified CBL-B (residues 36-427) and C-CBL (residues 46-435) proteins from baculovirus-infected insect cells; made in house; host or cells: baculovirus-infected insect cells
T2 sequence (P22681 46-435): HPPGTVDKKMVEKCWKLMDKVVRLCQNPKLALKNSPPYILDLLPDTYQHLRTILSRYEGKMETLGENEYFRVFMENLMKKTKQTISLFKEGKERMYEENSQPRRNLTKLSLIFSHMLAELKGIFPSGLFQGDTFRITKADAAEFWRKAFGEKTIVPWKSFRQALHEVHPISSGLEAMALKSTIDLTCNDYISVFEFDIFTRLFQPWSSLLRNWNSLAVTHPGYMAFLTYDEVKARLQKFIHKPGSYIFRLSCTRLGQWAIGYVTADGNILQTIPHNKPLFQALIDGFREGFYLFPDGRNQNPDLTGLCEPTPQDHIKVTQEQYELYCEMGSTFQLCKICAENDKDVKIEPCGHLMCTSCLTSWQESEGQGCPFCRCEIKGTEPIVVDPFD
How it was run: as §1

CBL-B = target: T3, CBL-B (Homo sapiens, UniProt Q13191); experiment: Jurkat HiBit-IL2 assay (c-CBL KO), reporter cell line expressing CBL-B only; format: cell-based; settings: geometric mean, read-out: C-CBL KO EC50 (nM) GMean
T3 construct: endogenous in cells; host or cells: Jurkat HiBit-IL2 reporter cells, C-CBL knocked out by CRISPR
Source text: (§2) Jurkat HiBit-IL2 Assay (WT, c-CBL KO, CBL-B KO)
(§3) The purpose of the Jurkat HiBit-IL2 assay is to evaluate the effect of the inhibition of CBL-B and/or C-CBL on TCR/CD28 stimulated interleukin-2 (IL-2) secretion.
(§4) The expression of IL-2 can then be accurately measured by HiBit luciferase assay. Further, C-CBL or CBL-B was knocked out by CRISPR respectively in this Jurkat HiBit-IL2 reporter cell line to create reporter cell line expressing CBL-B only (c-CBL knockout (KO)) or C-CBL only (CBL-B KO).
(§5) All three reporter cell lines were maintained in RPMI-1640 media with GlutaMax, 10% fetal bovine serum, 100 units/ml of penicillin, and 100 μg/ml of streptomycin at 37° C., 5% CO2, at a cell density 1×10e5-2×10e6 viable cells/ml. Serial diluted compounds in DMSO (40 nl/well, final 0.1% DMSO in assay cell culture) were plated into 384-well white-wall clear-bottom cell culture plates. Reporter cells were pelleted and resuspended in fresh cell culture medium to 0.66×10e6 cells/ml and added to the assay plate at 30 μl/well (20,000 cells/well). The cells were incubated with compounds for 1 hour at 37° C., 5% CO2. 10 μl/well of anti-CD3 antibody (OKT3) and anti-CD28 antibody (CD28.2) prediluted in fresh cell culture medium at 4× final concentration (anti-CD3 mAb: 4 μg/ml; anti-CD28 mAb: 8 μg/ml) was added into the cells (final concentration of anti-CD3 mAb: 1 μg/ml; anti-CD28 mAb: 2 μg/ml). The cells were cultured for another 4 hours at 37° C., 5% CO2. The Nano-Glo HiBiT Lytic Reagent was prepared following the manufacturer's protocol. 20 ul/well of the Nano-Glo HiBiT Lytic Reagent was added into the reporter cell culture assay plate and incubated at room temperature (20-25° C.) for 15 minutes. The plates were read on a Perkin-Elmer EnVision plate reader with 0.1 second integration time. Data were normalized to “Fold of Effect” with the anti-CD3 and anti-CD28 antibodies only samples as the baseline activation level and EC50 was calculated. The EC50 (nM) values reported are the geometric means (GMean) of the number of tests conducted.

C-CBL = target: T4, C-CBL (Homo sapiens, UniProt P22681); experiment: Jurkat HiBit-IL2 assay (CBL-B KO), reporter cell line expressing C-CBL only; format: cell-based; settings: geometric mean, read-out: CBL-B KO EC50 (nM) GMean
T4 construct: endogenous in cells; host or cells: Jurkat HiBit-IL2 reporter cells, CBL-B knocked out by CRISPR
Source text: as §2, §3, §4, §5

[1] = C-CBL KO (expressing CBL-B only), Table 16b (further repetition)
[2] = c-CBL KO (CBL-B only), anti-CD3/anti-CD28 stimulation 4 hours, Table 16a
[3] = CBL-B KO (C-CBL only), anti-CD3/anti-CD28 stimulation 4 hours, Table 16a
[4] = CBL-B KO (expressing C-CBL only), Table 16b (further repetition)

`CC(C)[C@H]1CN(C)CCN1Cc1nc(C(F)(F)F)cc2c(-c3cccc([C@H](c4nncn4C)C4CCC4)c3)n[nH]c12` [Example D32, 3-{3-[(R)-cyclobutyl(4-methyl-4H-1,2,4-triazol-3-yl)methyl]phenyl}-7-{[(2S)-4-methyl-2-(propan-2-yl)piperazin-1-yl]methyl}-5-(trifluoromethyl)-1H-pyrazolo[3,4-c]pyridine] was tested, and the Ki (CBL-B (residues 36-427)) was 1.3 nM, the Ki (C-CBL (residues 46-435)) was 10.2 nM and the EC50 (CBL-B; [1]) was 12 nM. For the same molecule, the EC50 (CBL-B; [2]) was 8 nM, the EC50 (C-CBL; [3]) was 175 nM and the EC50 (C-CBL; [4]) was 134 nM.

Work on `C[C@H](CO)N[C@H](C)c1nc(C(F)(F)F)cc2c(-c3cccc([C@H](c4nncn4C)C4CCC4)c3)n[nH]c12` (single isomer, unassigned) [Example C44] yielded a Ki (CBL-B (residues 36-427)) of 2.2 nM, a Ki (C-CBL (residues 46-435)) of 25 nM and an EC50 (CBL-B; [1]) of 60 nM. For the same molecule, the EC50 (CBL-B; [2]) was 21 nM, the EC50 (C-CBL; [3]) was 253 nM and the EC50 (C-CBL; [4]) was 356 nM.

For `CCC(CC)(CO)N[C@H](C)c1nc(C(F)(F)F)cc2c(-c3cccc([C@H](c4nncn4C)C4CCC4)c3)n[nH]c12` (single isomer, unassigned) [Example D75], the Ki (CBL-B (residues 36-427)) was 11 nM, the Ki (C-CBL (residues 46-435)) was 128 nM and the EC50 (CBL-B; [1]) was 195 nM. It also gave an EC50 (C-CBL; [4]) of 1030 nM.

For `CC(NCC(C)(C)O)c1nc(C(F)(F)F)cc2c(-c3cccc([C@H](c4nncn4C)C4CCC4)c3)n[nH]c12` (single isomer, unassigned) [Example C117], the Ki (CBL-B (residues 36-427)) was 7.9 nM, the Ki (C-CBL (residues 46-435)) was 83.6 nM and the EC50 (CBL-B; [1]) was 170 nM. For the same molecule, the EC50 (C-CBL; [4]) was 794 nM.

For `CC(NCC(C)(C)O)c1nc(C(F)(F)F)cc2c(-c3cccc([C@H](c4nncn4C)C4CCC4)c3)n[nH]c12` (single isomer, unassigned) [Example C45], the Ki (CBL-B (residues 36-427)) was 2.5 nM, the Ki (C-CBL (residues 46-435)) was 22.1 nM and the EC50 (CBL-B; [1]) was 30 nM. The EC50 (CBL-B; [2]) was 14 nM, the EC50 (C-CBL; [3]) was 102 nM and the EC50 (C-CBL; [4]) was 115 nM.

Molecule `C[C@@H](c1nc(C(F)(F)F)cc2c(-c3cccc([C@H](c4nncn4C)C4CCC4)c3)n[nH]c12)N1CC(C)(O)C1` (single isomer, unassigned) [Example D66] has a Ki (CBL-B (residues 36-427)) of 2.6 nM, a Ki (C-CBL (residues 46-435)) of 22.1 nM and an EC50 (CBL-B; [1]) of 72 nM. For the same molecule, the EC50 (C-CBL; [4]) was 409 nM.

Work on `C[C@@H](NC(C)(C)CO)c1nc(C(F)(F)F)cc2c(-c3cccc([C@H](c4nncn4C)C4CCC4)c3)n[nH]c12` (single isomer, unassigned) [Example D55] yielded a Ki (CBL-B (residues 36-427)) of 4.8 nM, a Ki (C-CBL (residues 46-435)) of 76.5 nM and an EC50 (CBL-B; [1]) of 80 nM. It also gave an EC50 (C-CBL; [4]) of 642 nM.

For `C[C@H](CO)N[C@@H](C)c1nc(C(F)(F)F)cc2c(-c3cccc([C@H](c4nncn4C)C4CCC4)c3)n[nH]c12` (single isomer, unassigned) [Example C43], the Ki (CBL-B (residues 36-427)) was 6.7 nM, the Ki (C-CBL (residues 46-435)) was 87.7 nM and the EC50 (CBL-B; [1]) was 61 nM. The EC50 (CBL-B; [2]) was 51 nM, the EC50 (C-CBL; [3]) was 912 nM and the EC50 (C-CBL; [4]) was 554 nM.

Molecule `CCC(CC)(CO)N[C@@H](C)c1nc(C(F)(F)F)cc2c(-c3cccc([C@H](c4nncn4C)C4CCC4)c3)n[nH]c12` (single isomer, unassigned) [Example D74] has a Ki (CBL-B (residues 36-427)) of 31.5 nM, a Ki (C-CBL (residues 46-435)) of 366 nM and an EC50 (CBL-B; [1]) of 639 nM. It also gave an EC50 (C-CBL; [4]) of 3400 nM.

`C[C@@H](NC1(CO)CCC1)c1nc(C(F)(F)F)cc2c(-c3cccc([C@H](c4nncn4C)C4CCC4)c3)n[nH]c12` (single isomer, unassigned) [Example D73] was tested, and the Ki (CBL-B (residues 36-427)) was 12.1 nM, the Ki (C-CBL (residues 46-435)) was 157 nM and the EC50 (CBL-B; [1]) was 118 nM. For the same molecule, the EC50 (C-CBL; [4]) was 639 nM.

`CC(NC[C@H](C)O)c1nccc2c(-c3cccc([C@H](c4nncn4C)C4CCC4)c3)n[nH]c12` (single isomer, unassigned) [Example C124] showed a Ki (CBL-B (residues 36-427)) of 7.9 nM, a Ki (C-CBL (residues 46-435)) of 109 nM and an EC50 (CBL-B; [1]) of 348 nM. For the same molecule, the EC50 (C-CBL; [4]) was 3280 nM.

In the case of `C[C@H](N[C@@H]1COC[C@@H]1O)c1nc(C(F)(F)F)cc2c(-c3cccc([C@H](c4nncn4C)C4CCC4)c3)n[nH]c12` (single isomer, unassigned) [Example D20], the Ki (CBL-B (residues 36-427)) is reported as 1.7 nM, the Ki (C-CBL (residues 46-435)) is reported as 2.3 nM and the EC50 (CBL-B; [1]) is reported as 11 nM. For the same molecule, the EC50 (CBL-B; [2]) was 4 nM, the EC50 (C-CBL; [3]) was 30 nM and the EC50 (C-CBL; [4]) was 31 nM.

`CC(NCCO)c1nc(C(F)(F)F)cc2c(-c3cccc([C@H](c4nncn4C)C4CCCCC4)c3)n[nH]c12` (single isomer, unassigned) [Example C40] showed a Ki (CBL-B (residues 36-427)) of 7.1 nM, a Ki (C-CBL (residues 46-435)) of 95.9 nM and an EC50 (CBL-B; [1]) of 214 nM. The EC50 (CBL-B; [2]) was 47 nM, the EC50 (C-CBL; [3]) was 1360 nM and the EC50 (C-CBL; [4]) was 1560 nM.
